In patent publication US20230143345A1, “PHARMACEUTICAL COMPOSITION FOR PREVENTION OR TREATMENT OF DISEASES CAUSED BY SARS-COV-2” (DONG WHA PHARM. CO., LTD., priority 2020, published 2023):
Several values for one entry are separate records, joined by “and”; a condition that tells them apart may be missing. Equal entries are not always repeated. Where two headings read alike, the source gives them in different places.

Assays:
SARS-CoV-2 [1] = assay: microbe, parasite or virus in culture; type: cell-based
SARS-CoV-2 [2] = assay: microbe, parasite or virus in culture; type: cell-based; conditions: read-out: SARS-CoV-2 virus 50% inhibitory ability (IC50 value); VERO cells infected at MOI 0.1 for one hour, then drug; culture fluid after 48 hours, qRT-PCR
VERO cells = assay: Cell viability of VERO cells by WST-1 assay (Example 3); conditions: read-out: 50% cell viability inhibitory concentration (CC50 value); VERO cells, WST-1 assay
Vero cell lines = assay: Cell viability of Vero cells in the SARS-CoV-2 inhibition experiment (Example 2)
[3] = read-out: SARS-CoV-2 virus 50% inhibitory ability (IC50 value)

## CCC(CC)COC(=O)[C@H](C)N[P@](=O)(OC[C@H]1O[C@@](C#N)(c2ccc3c(N)ncnn23)[C@H](O)[C@@H]1O)Oc1ccccc1 [Remdesivir]
SARS-CoV-2 [1]; Severe acute respiratory syndrome coronavirus 2, Vero, 24 h, concentration 6.25 uM, read-out: SARS-CoV-2 virus inhibitory ability (%, average ± standard deviation)
  inhibition at 6.25 µM: 10.8 ± 43.8%
SARS-CoV-2 [1]; Severe acute respiratory syndrome coronavirus 2, Vero, 24 h, concentration 12.5 uM, read-out: SARS-CoV-2 virus inhibitory ability (%, average ± standard deviation)
  inhibition at 12.5 µM: 63.6 ± 1.23%
SARS-CoV-2 [1]; Severe acute respiratory syndrome coronavirus 2, Vero, 24 h, concentration 25 uM, read-out: SARS-CoV-2 virus inhibitory ability (%, average ± standard deviation)
  inhibition at 25 µM: 84.6 ± 2.21%
SARS-CoV-2 [1]; Severe acute respiratory syndrome coronavirus 2, Vero, 24 h, concentration 50 uM, read-out: SARS-CoV-2 virus inhibitory ability (%, average ± standard deviation)
  inhibition at 50 µM: 94.38 ± 0.41%
SARS-CoV-2 [1]; Severe acute respiratory syndrome coronavirus 2, Vero, 24 h, read-out: SARS-CoV-2 virus 50% inhibitory ability (IC50 value)
  IC50: 10.8 µM
SARS-CoV-2 [1]; concentration 0.10 uM, 0.1 µM
  SARS-CoV-2 virus inhibitory ability (%, average ± standard deviation): −2.24 ± 7.45%
SARS-CoV-2 [1]; concentration 0.20 uM, 0.2 µM
  SARS-CoV-2 virus inhibitory ability (%, average ± standard deviation): 2.60 ± 1.90% and 7.2 ± 0.17%
SARS-CoV-2 [1]; concentration 0.39 uM, 0.39 µM
  SARS-CoV-2 virus inhibitory ability (%, average ± standard deviation): −1.29 ± 2.86% and 4.8 ± 4.21%
SARS-CoV-2 [1]; concentration 1.56 uM, 1.56 µM
  SARS-CoV-2 virus inhibitory ability (%, average ± standard deviation): 0.65 ± 5.05% and 7.4 ± 1.96%
SARS-CoV-2 [1]; concentration 3.13 uM, 3.13 µM
  SARS-CoV-2 virus inhibitory ability (%, average ± standard deviation): 5.89 ± 3.28% and 11.8 ± 0.80%
SARS-CoV-2 [1]; concentration 6.25 uM, 6.25 µM
  SARS-CoV-2 virus inhibitory ability (%, average ± standard deviation): 16.2 ± 2.56%
SARS-CoV-2 [1]; concentration 12.5 uM, 12.5 µM
  SARS-CoV-2 virus inhibitory ability (%, average ± standard deviation): 47.9 ± 0.01%
SARS-CoV-2 [1]; concentration 25 uM, 25 µM
  SARS-CoV-2 virus inhibitory ability (%, average ± standard deviation): 82.1 ± 1.40%
SARS-CoV-2 [1]; concentration 50 uM, 50 µM
  SARS-CoV-2 virus inhibitory ability (%, average ± standard deviation): 93.5 ± 1.80%
SARS-CoV-2 [1]; [3]
  IC50: 12.7 µM

## Cc1cccc(C)c1OCC(=O)N[C@@H](Cc1ccccc1)[C@@H](O)C[C@H](Cc1ccccc1)NC(=O)[C@H](C(C)C)N1CCCNC1=O [Lopinavir]
SARS-CoV-2 [1]; Severe acute respiratory syndrome coronavirus 2, Vero, 24 h, concentration 25 uM, Vero cells, 24 h, read-out: SARS-CoV-2 virus inhibitory ability (%, average ± standard deviation)
  inhibition at 25 µM: 99.01 ± 0.02%
SARS-CoV-2 [1]; Severe acute respiratory syndrome coronavirus 2, Vero, 24 h, concentration 50 uM, Vero cells, 24 h, read-out: SARS-CoV-2 virus inhibitory ability (%, average ± standard deviation)
  inhibition at 50 µM: 98.2 ± 2.11%
SARS-CoV-2 [1]; Severe acute respiratory syndrome coronavirus 2, Vero, 24 h, read-out: SARS-CoV-2 virus 50% inhibitory ability (IC50 value), Vero cells dosed while being infected, 24 h, compounds
  IC50: 12.6 µM
SARS-CoV-2 [1]; concentration 0.10 uM, Vero cells, 24 h, 0.1 µM
  SARS-CoV-2 virus inhibitory ability (%, average ± standard deviation): 3.14 ± 0.24% and −0.2 ± 4.23%
SARS-CoV-2 [1]; concentration 0.20 uM, Vero cells, 24 h, 0.2 µM
  SARS-CoV-2 virus inhibitory ability (%, average ± standard deviation): 0.2 ± 2.44%
SARS-CoV-2 [1]; concentration 0.39 uM, Vero cells, 24 h, 0.39 µM
  SARS-CoV-2 virus inhibitory ability (%, average ± standard deviation): −0.60 ± 2.75% and 1.2 ± 5.71%
SARS-CoV-2 [1]; concentration 1.56 uM, Vero cells, 24 h, 1.56 µM
  SARS-CoV-2 virus inhibitory ability (%, average ± standard deviation): 0.79 ± 3.76% and 1.7 ± 0.27%
SARS-CoV-2 [1]; concentration 3.13 uM, Vero cells, 24 h, 3.13 µM
  SARS-CoV-2 virus inhibitory ability (%, average ± standard deviation): 3.03 ± 0.67% and 0.2 ± 6.78%
SARS-CoV-2 [1]; concentration 6.25 uM, Vero cells, 24 h, 6.25 µM
  SARS-CoV-2 virus inhibitory ability (%, average ± standard deviation): 3.38 ± 5.94% and −0.1 ± 1.27%
SARS-CoV-2 [1]; concentration 25 uM, Vero cells, 24 h, 25 µM
  SARS-CoV-2 virus inhibitory ability (%, average ± standard deviation): 98.6 ± 0.28%
SARS-CoV-2 [1]; concentration 50 uM, Vero cells, 24 h, 50 µM
  SARS-CoV-2 virus inhibitory ability (%, average ± standard deviation): 99.6 ± 0.57%
SARS-CoV-2 [1]; read-out: SARS-CoV-2 virus 50% inhibitory ability (IC50 value), Vero cells dosed while being infected, 24 h, compounds
  IC50: 14.5 µM

## COc1cc2cc3c(c(-c4ccc5c(c4)OCO5)c2cc1OC)C(=O)OC3 [Justicidin-B, 9-benzo[1,3]dioxol-5-yl-6,7-dimethoxy-3H-naphtho[2,3-c]furanone]
SARS-CoV-2 [1]; Vero cells, comparison at IC50 values with Remdesivir, Lopinavir and Chloroquine
  SARS-CoV-2 inhibitory ability (in words): remarkably more excellent
SARS-CoV-2 [1]; concentration 0.10 uM, Vero cells, 24 h
  SARS-CoV-2 virus inhibitory ability (%, average ± standard deviation): 13.37 ± 6.72%
SARS-CoV-2 [1]; concentration 0.20 uM, Vero cells, 24 h
  SARS-CoV-2 virus inhibitory ability (%, average ± standard deviation): 48.73 ± 2.82%
SARS-CoV-2 [1]; concentration 0.39 uM, Vero cells, 24 h
  SARS-CoV-2 virus inhibitory ability (%, average ± standard deviation): 88.06 ± 0.59%
SARS-CoV-2 [1]; concentration 1.56 uM, Vero cells, 24 h
  SARS-CoV-2 virus inhibitory ability (%, average ± standard deviation): 99.61 ± 0.65%
SARS-CoV-2 [1]; concentration 3.13 uM, Vero cells, 24 h
  SARS-CoV-2 virus inhibitory ability (%, average ± standard deviation): 100.03 ± 0.27%
SARS-CoV-2 [1]; concentration 12.5 uM, Vero cells, 24 h
  SARS-CoV-2 virus inhibitory ability (%, average ± standard deviation): 100.01 ± 0.14%
SARS-CoV-2 [1]; concentration 25 uM, Vero cells, 24 h
  SARS-CoV-2 virus inhibitory ability (%, average ± standard deviation): 100.00 ± 0.21%
SARS-CoV-2 [1]; concentration 50 uM, Vero cells, 24 h
  SARS-CoV-2 virus inhibitory ability (%, average ± standard deviation): 100.28 ± 0.49%
SARS-CoV-2 [1]; [3]
  IC50: 0.203 µM
SARS-CoV-2 [2]
  IC50: 170 nM
VERO cells
  CC50: > 800 µM
Vero cell lines; concentration 0.10 uM
  Cell viability (%, average ± standard deviation): 107.08 ± 1.75%
Vero cell lines; concentration 0.20 uM
  Cell viability (%, average ± standard deviation): 110.62 ± 0.00%
Vero cell lines; concentration 0.39 uM
  Cell viability (%, average ± standard deviation): 107.70 ± 4.88%
Vero cell lines; concentration 1.56 uM
  Cell viability (%, average ± standard deviation): 102.83 ± 5.24%
Vero cell lines; concentration 3.13 uM
  Cell viability (%, average ± standard deviation): 98.69 ± 5.68%
Vero cell lines; concentration 6.25 uM
  Cell viability (%, average ± standard deviation): 94.60 ± 3.46%
Vero cell lines; concentration 12.5 uM
  Cell viability (%, average ± standard deviation): 90.01 ± 1.60%
Vero cell lines; concentration 25 uM
  Cell viability (%, average ± standard deviation): 83.49 ± 1.22%
Vero cell lines; concentration 50 uM
  Cell viability (%, average ± standard deviation): 78.67 ± 2.53%
